Results reported in US20210403922A1 (CRISP-HR Therapeutics, Inc., priority 2019, published 2021).
Entries after “also recorded” stand apart in the source; their conditions may differ.

How the values were obtained:
HBB genomic region = assay: Sanger sequencing of the HBB genomic region after Cas9 and gRNA transfection; format: cell-based, Human; settings: FIG. 6C / FIG. 13B, A549 cells, unmodified Cas9
A549 cells = assay: Resazurin reduction assay, gRNA targeting exon 1 of HBB gene; format: cell-based, Human; settings: FIG. 6B / FIG. 13A
Procedure: Cells are cultured in a 96-well plate and each well is seeded with about 2.5×10^4 cells. Each column of the 96-well plate receives a treatment with different plasmid respectively. […] The cells in the first column are transfected with plasmids encoding the first fusion protein as shown in FIG. 1; the cells in the second column with plasmids encoding the second fusion protein as shown in FIG. 1; the cells in the third column with plasmids encoding the third fusion protein as shown in FIG. 1; the cells in the fourth column with plasmids encoding the fourth fusion protein as shown in FIG. 1; the cells in the fifth column with plasmids encoding the fifth fusion protein as shown in FIG. 1; the cells in the sixth column with plasmids encoding the sixth fusion protein as shown in FIG. 1; the cells in the seventh column with plasmids encoding the seventh fusion protein as shown in FIG. 1; the cells in the eighth column with plasmids encoding the eighth fusion protein as shown in FIG. 1; and the cells in the ninth column with plasmids encoding the ninth fusion protein as shown in FIG. 1. […] The cells in the twelfth column are transfected with plasmids encoding GFPs. The cells in the […] are controls without any treatment.
Each of the plasmid constructs also contained a nucleotide sequence encoding a gRNA directed to recognize exon 1 of the human HBB gene. […] Three gRNA sequences as listed in Table 2 directed to recognize one of HBB gene's exon were used.
Toxicity was quantified using Resazurin as in Example 1.

[1] = system: phosphorylated 5′-double strand DNA ends; settings: cited from earlier work

Molecule	Cas9 cleavage and repair via NHEJ (INDELs) by Sanger sequencing (HBB genomic region)	Cas9 cleavage and repair via NHEJ (INDELs) by Sanger sequencing (HBB genomic region; listed as Cas9 HBB-G3)	cellular toxicity of HBB gRNA guides with unmodified Cas9 (NT) (A549 cells)	cellular toxicity of HBB gRNA guides with unmodified Cas9 (NT) (A549 cells; listed as NT HBB-G3)	cellular toxicity of HBB gRNA guides with unmodified Cas9 (NT) (A549 cells; listed as gRNA G3)	affinity for phosphorylated 5′-double strand DNA ends as for unphosphorylated [1]
HBB-G1: gRNA designed to target Exon 1 of the HBB gene, SEQ ID NO: 21 (guide GUAACGGCAGACUUCUCCUC; chemistry not given here)	could not be detected					
HBB-G3: gRNA designed to target Exon 1 of the HBB gene, SEQ ID NO: 23 (guide GAGGUGAACGUGGAUGAAGU; chemistry not given here)	characteristic noise following Cas9 cleavage and repair via NHEJ pathways; also recorded: significant cleavage	generation of INDELs	higher toxicity than either HBB-G1 or HBB-G2	smallest normalized fold change number	highest cellular toxicity	
hExo1: human Exo1 exonuclease; N-terminal nuclease region SEQ ID NO: 1 (protein, listed as Homo sapiens) MGIQGLLQFIKEASEPIHVRKYKGQVVAVDTYCWLHKGAIACAEKLAKGEPTDRYVGFCMKFVNMLLSHGIKPILVFDGCTLPSKKEVERSRRERRQANLLKGKQLLREGKVSEARECFTRSINITHAMAHKVIKAARSQGVDCLVAPYEADAQLAYLNKAGIVQAIITEDSDLLAFGCKKVILKMDQFGNGLEIDQARLGMCRQLGDVFTEEKFRYMCILSGCDYLSSLRGIGLAKACKVLRLANNPDIVKVIKKIGHYLKMNITVPEDYINGFIRANNTFLYQLVFDPIKRKLIPLNAYEDDVDPETLSYAGQYVDDSIALQIALGNKDINTFEQIDDYNPDTAMPAHSRSHSWDDKTCQKSANVSSIWHRNYSPRPESGTVSDAPQLKE						roughly 10 ×
